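GI50 = concentration required for 50% inhibition of growth. The concentration for full growth arrest is given as TGI.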
Experiments:
Test in all cases: DTP human tumour cell line panel, 384-well format
MALME-3M melanoma = system: MALME-3M melanoma
MOLT-4 leukemia = system: MOLT-4 leukemia
NCI-H522 lung = system: NCI-H522 lung
SF-295 CNS = system: SF-295 CNS
LOX IMVI melanoma = system: LOX IMVI melanoma
OVCAR-5 ovarian = system: OVCAR-5 ovarian
KM12 colon = system: KM12 colon
NCI-H23 lung = system: NCI-H23 lung
HOP-62 NSCLC = system: HOP-62 NSCLC
NCI-H226 lung = system: NCI-H226 lung
OVCAR-8 ovarian = system: OVCAR-8 ovarian
HCC-2998 colon = system: HCC-2998 colon
HL-60(TB) leukemia = system: HL-60(TB) leukemia
ACHN renal = system: ACHN renal
SF-268 CNS = system: SF-268 CNS
BT-549 breast = system: BT-549 breast
SNB-19 CNS = system: SNB-19 CNS
IGROV1 ovarian = system: IGROV1 ovarian
RPMI-8226 leukemia = system: RPMI-8226 leukemia
MDA-MB-231 breast = system: MDA-MB-231 breast
NCI-H322M lung = system: NCI-H322M lung
MDA-MB-468 breast = system: MDA-MB-468 breast
CCRF-CEM leukemia = system: CCRF-CEM leukemia
A549 NSCLC = system: A549 NSCLC
NCI/ADR-RES ovarian = system: NCI/ADR-RES ovarian
SW-620 colon = system: SW-620 colon
U251 glioblastoma = system: U251 glioblastoma
CAKI-1 renal = system: CAKI-1 renal
OVCAR-3 ovarian = system: OVCAR-3 ovarian
SK-MEL-28 melanoma = system: SK-MEL-28 melanoma
SK-MEL-5 melanoma = system: SK-MEL-5 melanoma
NCI-H460 NSCLC = system: NCI-H460 NSCLC
UO-31 renal = system: UO-31 renal
EKVX NSCLC = system: EKVX NSCLC
UACC-62 melanoma = system: UACC-62 melanoma
DU-145 prostate = system: DU-145 prostate
OVCAR-4 ovarian = system: OVCAR-4 ovarian
A498 renal = system: A498 renal
HCT-15 colon = system: HCT-15 colon
HOP-92 NSCLC = system: HOP-92 NSCLC
MCF7 breast = system: MCF7 breast
M14 melanoma = system: M14 melanoma
786-0 renal = system: 786-0 renal
K-562 leukemia = system: K-562 leukemia
SK-OV-3 ovarian = system: SK-OV-3 ovarian
SF-539 CNS = system: SF-539 CNS
HT29 colon = system: HT29 colon
UACC-257 melanoma = system: UACC-257 melanoma
SNB-75 CNS = system: SNB-75 CNS
T-47D breast = system: T-47D breast
SR leukemia = system: SR leukemia
HS 578T breast = system: HS 578T breast
RXF 393 renal = system: RXF 393 renal
SN12C renal = system: SN12C renal
COLO 205 colon = system: COLO 205 colon

Compound: NS(=O)(=O)OC[C@@H]1C[C@@H](n2ccc3c(NC4CCc5ccccc54)ncnc32)C[C@@H]1O (stereo not given in full)
- GI50 (MALME-3M melanoma): 202 nM
- TGI (MALME-3M melanoma): 766 nM
- GI50 (MOLT-4 leukemia): 29 nM
- TGI (MOLT-4 leukemia): 117 nM
- GI50 (NCI-H522 lung): 42.8 nM
- TGI (NCI-H522 lung): 844 nM
- GI50 (SF-295 CNS): 176 nM
- TGI (SF-295 CNS): 333 nM
- GI50 (LOX IMVI melanoma): 39.9 nM
- TGI (LOX IMVI melanoma): 168 nM
- GI50 (OVCAR-5 ovarian): 554 nM
- TGI (OVCAR-5 ovarian): 13600 nM
- GI50 (KM12 colon): 255 nM
- TGI (KM12 colon): 4950 nM
- GI50 (NCI-H23 lung): 212 nM
- TGI (NCI-H23 lung): 1380 nM
- GI50 (HOP-62 NSCLC): 114 nM
- TGI (HOP-62 NSCLC): 372 nM
- GI50 (NCI-H226 lung): 112 nM
- TGI (NCI-H226 lung): 804 nM
- GI50 (OVCAR-8 ovarian): 119 nM
- TGI (OVCAR-8 ovarian): 316 nM
- GI50 (HCC-2998 colon): 434 nM
- TGI (HCC-2998 colon): 5530 nM
- GI50 (HL-60(TB) leukemia): 10.9 nM
- TGI (HL-60(TB) leukemia): 26.6 nM
- GI50 (ACHN renal): 227 nM
- TGI (ACHN renal): 735 nM
- GI50 (SF-268 CNS): 238 nM
- TGI (SF-268 CNS): 4970 nM
- GI50 (BT-549 breast): 56.7 nM
- TGI (BT-549 breast): 491 nM
- GI50 (SNB-19 CNS): 372 nM
- TGI (SNB-19 CNS): 28500 nM
- GI50 (IGROV1 ovarian): 257 nM
- TGI (IGROV1 ovarian): 4400 nM
- GI50 (RPMI-8226 leukemia): 126 nM
- TGI (RPMI-8226 leukemia): 1560 nM
- GI50 (MDA-MB-231 breast): 216 nM
- TGI (MDA-MB-231 breast): 2730 nM
- GI50 (NCI-H322M lung): 333 nM
- TGI (NCI-H322M lung): 11100 nM
- GI50 (MDA-MB-468 breast): 13.5 nM
- TGI (MDA-MB-468 breast): 64.9 nM
- GI50 (CCRF-CEM leukemia): 24.6 nM
- TGI (CCRF-CEM leukemia): 126 nM
- GI50 (A549 NSCLC): 405 nM
- TGI (A549 NSCLC): 13800 nM
- GI50 (NCI/ADR-RES ovarian): 1520 nM
- TGI (NCI/ADR-RES ovarian): 11300 nM
- GI50 (SW-620 colon): 602 nM
- TGI (SW-620 colon): 15700 nM
- GI50 (U251 glioblastoma): 254 nM
- TGI (U251 glioblastoma): 12500 nM
- GI50 (CAKI-1 renal): 76.4 nM
- TGI (CAKI-1 renal): > 100000 nM
- GI50 (OVCAR-3 ovarian): 43.2 nM
- TGI (OVCAR-3 ovarian): 3550 nM
- GI50 (SK-MEL-28 melanoma): 163 nM
- TGI (SK-MEL-28 melanoma): 1880 nM
- GI50 (SK-MEL-5 melanoma): 34.3 nM
- TGI (SK-MEL-5 melanoma): 223 nM
- GI50 (NCI-H460 NSCLC): 274 nM
- TGI (NCI-H460 NSCLC): 958 nM
- GI50 (UO-31 renal): 3180 nM
- TGI (UO-31 renal): > 100000 nM
- GI50 (EKVX NSCLC): 2430 nM
- TGI (EKVX NSCLC): > 100000 nM
- GI50 (UACC-62 melanoma): 20.2 nM
- TGI (UACC-62 melanoma): 137 nM
- GI50 (DU-145 prostate): 68.6 nM
- TGI (DU-145 prostate): 14000 nM
- GI50 (OVCAR-4 ovarian): 210 nM
- TGI (OVCAR-4 ovarian): 799 nM
- GI50 (A498 renal): 43.8 nM
- TGI (A498 renal): 10400 nM
- GI50 (HCT-15 colon): 277 nM
- TGI (HCT-15 colon): 11200 nM
- GI50 (HOP-92 NSCLC): 439 nM
- TGI (HOP-92 NSCLC): 18800 nM
- GI50 (MCF7 breast): 32.9 nM
- TGI (MCF7 breast): 424 nM
- GI50 (M14 melanoma): 151 nM
- TGI (M14 melanoma): 1050 nM
- GI50 ([…]-0 renal): 226 nM
- TGI (786-0 renal): 1130 nM
- GI50 (K-562 leukemia): 62.7 nM
- TGI (K-562 leukemia): 10900 nM
- GI50 (SK-OV-3 ovarian): 206 nM
- TGI (SK-OV-3 ovarian): 703 nM
- GI50 (SF-539 CNS): 85.3 nM
- TGI (SF-539 CNS): 260 nM
- GI50 (HT29 colon): 256 nM
- TGI (HT29 colon): 11600 nM
- GI50 (UACC-257 melanoma): 162 nM
- TGI (UACC-257 melanoma): 10500 nM
- GI50 (SNB-75 CNS): 178 nM
- TGI (SNB-75 CNS): 627 nM
- GI50 (T-47D breast): 142 nM
- TGI (T-47D breast): 15800 nM
- GI50 (SR leukemia): 24.3 nM
- TGI (SR leukemia): 79.1 nM
- GI50 (HS 578T breast): 186 nM
- TGI (HS 578T breast): 13200 nM
- GI50 (RXF 393 renal): 60.1 nM
- TGI (RXF 393 renal): 304 nM
- GI50 (SN12C renal): 370 nM
- TGI (SN12C renal): 4360 nM
- GI50 (COLO 205 colon): 40.6 nM
- TGI (COLO 205 colon): 292 nM
